row,SMILES,melting point
1,Cc1cc(NCCO)c2[nH]nc(Br)c2n1,210 to 214 °C
2,COc1ccc2nc(C(=O)O)c(OCc3ccccc3)cc2c1,272 to 275 °C
3,NC(=O)N(O)CCNC(=O)c1cccc(Oc2ccc(Cl)cc2)c1,146 to 147 °C
4,C/C(=C\c1ccc(C(C)(C)C)cc1)CNc1cccc(-c2ccnc3c(C(=O)c4cccs4)cnn23)c1,135 to 137 °C
5,CCCCN1CCCN(c2ccccc2)c2cc(Cl)ccc21,159 to 161 °C
6,CS(=O)(=O)Nc1ccc(F)c(C(=O)CBr)c1,110 to 113 °C
7,COC(=O)c1c(C)ccc(C(O)=S)c1C,178 °C
8,COc1c(N2CC3CCC3(NC(=O)OC(C)(C)C)C2)c(F)cc2c(=O)c(C(=O)O)cn(C3CC3)c12 (centres undefined),211 to 213 °C
9,CC(C)(C)OC(=O)NN=C1CCN(C(=O)OC(C)(C)C)CC1,172 to 174 °C
10,O=[N+]([O-])c1ccc(Cl)cc1NC1CCN(Cc2ccccc2)CC1,84 °C
11,Cc1c(Cc2ccc(C(C)C)cc2)c2c(c(C)c1NC(=O)CC(C)(C)C)C(O)C(C)(C)O2 (centres undefined),244 to 245 °C
12,CCC#CCOc1cc(/C=C/C(=O)Nc2ccccc2C(=O)O)ccc1OC,124 to 125 °C
13,CC(C(=O)O)c1ccc(Oc2ccc(F)cc2)cc1 (centres undefined),84 to 86 °C
14,Nc1nc(-c2ccc(CCCCN3CCN(c4ccccc4)CC3)s2)cs1,165 to 167 °C
15,CCCC(=O)c1cnc2c(OCCOC)cccc2c1Nc1ccccc1C,75 to 77 °C
16,O=C1NCc2c1c1c(c3[nH]c4ccccc4c23)Cc2ccc(Br)cc2-1,> 340 °C
17,CCOCCCNC(=O)Nc1ccccc1CCc1cc(C(C)(C)C)c(O)c(C(C)(C)C)c1,136 to 137 °C
18,O=c1c(F)cn(C2CCCO2)c(=O)n1C1CCCO1 (centres undefined),105 to 108 °C
19,c1ccc(NCCN2CCN(c3cccc4[nH]ccc34)CC2)nc1,153 to 160 °C
20,Cn1nc2c(N)nc3ccccc3c2c1CCc1ccccc1,210 to 212 °C
21,CNCC1=C(n2ccccc2=O)c2cc([N+](=O)[O-])ccc2OC1(C)C,128 °C
22,COc1cc(Cl)ccc1CN1C(=O)C(C)(c2cc(C(=O)N3CCCCC3)ccc2Cl)c2cc(Cl)ccc21 (centres undefined),205 °C
23,O=c1nc(NO)ccn1C1OC(CO)C(O)C1O (centres undefined),173 to 176 °C
24,COc1ccc(/C=C(\C#N)c2ccccc2OC)cc1OC1CCCC1,85 to 87.5 °C
25,COc1ccc(/C=C(\C#N)c2ccccc2F)cc1OC1CCCC1,70 to 73 °C
26,CCCC(=O)Nc1cscn1,63 to 66 °C

row,SMILES,melting point
1,Cc1c(C(=O)Nc2ccc(N3CCC(N4CCNCC4)CC3)c(C#N)c2)cnn1-c1ccc(Cl)cc1,226 °C
2,Cc1c(C#N)ncn1-c1cccc(Cl)c1,117 to 118 °C
3,COC(=O)N1c2cc(OC)c(OC)cc2C(=O)CC1C (centres undefined),156 to 158 °C
4,COc1ccc(N2CCN(Cc3cc4ccccc4[nH]c3=O)CC2)cc1,263 to 266 °C
5,O=C(c1cccs1)c1scc(Br)c1Br,105 to 109 °C
6,CCn1cc(C(=O)O)c(=O)c2cc(F)c(N3CC(N)C3)nc21,260 to 262 °C
7,O=C(NC1CCCCC1)N(CCCN1CCC(Cc2ccccc2)CC1)c1ccccc1,106 to 108 °C
8,CCCCCCCCCCCC=CC(O)C(COC1OC(CO)C(O)C(O)C1O)NC(=O)CCCCCCCCCCCCCCCCC (centres undefined),209 to 210 °C
9,O=C(O)[C@@H](CCN1C(=O)c2ccccc2C1=O)Oc1c(Br)cc(-c2c3ccccc3cc3sc4ccccc4c23)cc1Br,222 to 223 °C
10,O=C(N[C@H](Cc1ccccc1)C(=O)O)OCc1ccc2nc(-c3ccccc3)ccc2c1,190 to 191 °C
11,CNC(Cc1c[nH]c2c(Cl)cccc12)C(=O)O (centres undefined),208 to 211 °C
12,c1ccc(CN(Cc2ccccc2)C2CCC3(CC2)OCCO3)cc1,> 95 °C
13,CCOC(=O)c1ccc(S(N)(=O)=O)cc1,102 to 104 °C
14,CC(C)(COc1ccc(-n2cc(C(=O)O)cn2)cc1C#N)C(=O)O,230 to 233 °C
15,Cn1nc(-c2ccc(C(=N)N)cc2)cc(C(=O)N[C@H]2CC[C@H](C(=O)O)CC2)c1=O,263 to 266 °C
16,Oc1cccc(O)c1Br,86 to 88 °C
17,CCC(c1ccccn1)N(Cc1ccc(C(=O)OC)cc1)S(=O)(=O)c1ccc(F)cc1 (centres undefined),82 to 84 °C
18,CCCCCCCCCCCCOc1ccc(-c2cc3ccccc3[nH]2)cc1OC,104 °C
19,CC1CN(c2ccc(N)cc2Cl)C(=O)O1 (centres undefined),140 to 141 °C
20,O=C(O)CC(CCCc1ccc(O)cc1)CC(=O)O,107 to 108 °C
21,CCOC(=O)CCCSc1nccc(NC(=S)NCC(F)(F)F)n1,104 to 106 °C
22,CN(C)C(=O)N[C@H]1CC[C@H](CCN2CCN(c3cccc4c3CCC4)CC2)CC1,150 to 152 °C
23,COc1ccc(CC(=O)NC(NC(=NC#N)Nc2ccccc2C)C(C)(C)C)cc1 (centres undefined),174 °C
24,CN(C)C=C(C#N)C(=O)c1ccsc1,118 to 119 °C
25,CC(C)(C)c1cc(C(c2cccc([N+](=O)[O-])c2)N2CCCCC2)cc(C(C)(C)C)c1O (centres undefined),157 °C
26,COc1ccc(C(C)c2cc3c(cc2OC)OCO3)cc1 (centres undefined),93 to 94 °C

row,SMILES,melting point
1,Cc1ccccc1C[C@H](C(=O)Nc1nc2ccccc2o1)c1ccc(S(C)(=O)=O)cc1,99 to 102 °C
2,CC(=O)OCC1CC(=O)NN=C1c1ccc(N2CCOCC2)c(C#N)c1 (centres undefined),60 to 69 °C
3,NC(=O)c1cc(-c2cccc(Cl)c2)sc1N,190 to 192 °C
4,COC1=C(OC)C(=O)C2=C(CCC(CCOc3ccc(F)cc3)CC2)C1=O,91 to 93 °C
5,CCCCCCCNC(=O)N(C)c1cccc(-c2ccc(CCC(=O)O)c(F)c2)c1,92 to 93 °C
6,CSc1nc(Br)cc(Br)n1,82 to 84 °C
7,Cc1ncc2cc(C#N)c(O)nc2n1,> 200 °C
8,O=[N+]([O-])c1c(Cl)cccc1-c1nn(CO)cc1Cl,146 °C
9,COC(=O)c1nc(-c2cc(N)c(Cl)cc2F)cc(N)c1Cl,99 to 101 °C
10,CCCOCc1ccc(C#CC2(O)CN3CCC2CC3)cc1 (centres undefined),140 to 141 °C
11,CCC(C)(C)c1ccc(OCC2CN=C(N)O2)cc1 (centres undefined),104 °C
12,COC1CN(C(=O)c2cnn(C)c2C(=O)Nc2ccn3nc(-c4cccc(F)c4)nc3c2)C1,255 to 257 °C
13,COc1cc(COc2cc(CCc3ccccn3)n(-c3ccccc3)n2)ccc1OCc1nc(-c2ccco2)oc1C,104 to 105 °C
14,C=Cc1ccc(S(=O)(=O)On2nnc3ccc(C=C)cc32)cc1,85 to 87 °C
15,CCN(CC)C(=S)NC1C=C2c3cccc4c3c(cn4CC)CC2N(C)C1 (centres undefined),108 °C
16,O=C1C(=O)c2ccccc2C2=C1SCC1(CCN(C(=O)c3cccc(C(F)(F)F)c3)CC1)O2,165 to 166 °C
17,O=C1C(c2ccccc2)=C(c2ccccc2)C(=O)N1CC(=O)N1c2ccccc2N(Cc2ccccc2)C(=O)C2CCCC21 (centres undefined),207 to 208 °C
18,O=C(O)c1ccc(OCCC2CC(=O)N(c3ccc(Cl)cc3)C2)cc1 (centres undefined),228 to 229 °C
19,CCCCCCCCCCC(=O)OC1CC(C)(C)N(CC#N)C(C)(C)C1,54 °C
20,O=C1CCNc2nc(Br)ccc21,196 to 197 °C
21,CCCCCC(O)C=CC1C(O)CC(O)C1CCCCCCC(=O)O (centres undefined),98 to 100 °C
22,CCCc1nn(CC)c(CO)c1Cc1ccc(-c2ccccc2NS(=O)(=O)C(F)(F)F)cc1,59 to 64 °C
23,CC(=O)Oc1c2ccc(C(F)(F)F)cc2c(OC(C)=O)c2cc3ccccc3cc12,285 to 288 °C
24,NNc1nc(Cl)nc2cc3c(cc12)OCO3,> 280 °C
25,O=C(Nc1ccccn1)Nc1cccc2c1C1CC3(CCN1C2=O)OCCO3 (centres undefined),178 to 180 °C
26,CNC(=O)NC1OCC(OC(C)=O)C(OC(C)=O)C1OC(C)=O (centres undefined),170 to 172 °C

row,SMILES,melting point
1,Cc1nnc(-c2ccc3occ(C(=O)NCCC(N)=O)c3c2)o1,242 to 243 °C
2,CCCCC1Oc2ccc(Cl)cc2N(CC(O)CO)C1=O (centres undefined),69.5 °C
3,Cc1nc(Cn2cnc3c2c(=O)n(C)c(=O)n3C)no1,135 °C
4,CC(C)(C)CC(=O)c1c(-c2ccc3cc(OCC(=O)O)ccc3c2)oc2ccccc12,207 to 209 °C
5,CC(C)c1ccc(C2(CC(=O)O)CNC(=O)C2)cc1 (centres undefined),175 to 178 °C
6,COc1ccc(Cl)cc1C(=O)NCCc1ccc(Br)cc1,104 to 109 °C
7,CNc1c([N+](=O)[O-])ccc(Sc2ccccc2)c1Cl,79 °C
8,C1=C(c2coc3ccccc23)N2CCCN=C2S1,128 to 130 °C
9,CC(C)(C)OC(=O)NCCCCNOC(=O)c1ccccc1,113 to 114 °C
10,COC1CC(C)(C)Cc2c1c(C)nn2-c1ccccn1 (centres undefined),66 to 68 °C
11,CCOC(=O)N(C)C(=O)N(O)C(C)c1cc(C)sc1C (centres undefined),111 to 112 °C
12,Cc1cccc(C(=O)NO)c1N(C)S(=O)(=O)c1ccc(OCCCNC(=O)c2cc3ccccc3[nH]2)cc1,144 to 146 °C
13,Cc1ccc(S(=O)(=O)n2ccc3c(-c4c(C)nc5ccc(Cl)nn45)ccnc32)cc1,138 to 140 °C
14,NC(=O)c1sc2nccc(N3CCCN(c4ccc(Cl)cc4)CC3)c2c1N,92 to 96 °C
15,O=C(O)c1cnc(N2CCCC2)c(OCC2CCCC2)n1,204 to 206 °C
16,CCC(=O)NCC[C@@H]1CCc2ccc3c(c21)CCO3,113 to 115 °C
17,Cc1ccc2c(c1)CSc1nnc(C)n1-2,168 °C
18,CC=CC=NNC(=O)c1cnccn1,192 to 194 °C
19,COc1cc(OC)nc(Oc2cccc3c2C(=O)OC3C)n1 (centres undefined),190 to 191 °C
20,CSc1nc(-c2ccncc2)n(-c2ccc(F)cc2)c(=O)c1C#N,301 to 303 °C
21,CC(C)=NOCOc1cc(-n2c(=O)cc(C(F)(F)F)n(C)c2=O)c(F)cc1Br,121 °C
22,O=C(O)C(Cc1ccccc1)NCc1ccccc1 (centres undefined),219 to 220 °C
23,Fc1ccc(-c2cn(-c3ccncc3)c3ccccc23)cc1,115 to 118 °C
24,CC(=O)NCC1CN(c2ccc(-c3cccc(CN(CC(N)=O)CC(N)=O)c3)c(F)c2)C(=O)O1 (centres undefined),213 °C
25,O=C1CCN(C(=O)c2ccc(Cl)cc2)CC1,61 to 63 °C
26,O=S(=O)(c1ccccc1)n1c2cc(O)c(O)cc2c2cc(O)c(O)cc21,240 to 241 °C
